Experimental data as given in patent publication US11690851B2, “Methods and compositions comprising ursolic acid and/or resveratrol for treating diabetes, or cancer” (priority 2014, dated 2023).

How the values were obtained:
L6 myotubes = test: cellular glucose uptake ([3H]-2DG); assay type: cell-based; settings: Ins 100 nM, Met 1 mM, UA 10 uM, RES 100 uM
Experimental: L6 myotubes were incubated with UA (10 μM) at different time points.

NFKB = test: Luciferase assay for NFKB activity in HaCaT cells; assay type: cell-based, human
Experimental: Luciferase assay for NFKB activity: HaCaT cells were transfected with the NFKB Cignal Reporter Assay Kit from Qiagen, using Attractene transfection reagent, per manufacturer's instructions. Cells were plated at 1.5×10^4 cells/well in 96 well plates during the transfection. After 16 hr transfection, cells were resupplied with OptiMEM containing 0.5% FBS, 1% non-essential amino acids, 50 U/ml penicillin, and […] for 24 hr. Cells were pretreated with various doses of RES or vehicle for 1 hr, followed by UA or vehicle for 1 hr. TNFα at 10 ng/ml was added and cells were incubated for 4 hr. Luminescence of both the TNFα-induced firefly luciferase and the transfection control Renilla luciferase were measured using the Dual-Luciferase Reporter Assay System from Promega and quantified using a Biotek Synergy HT spectrophotometer.

AMPK = AMPK phosphorylation in L6 myotubes; assay type: cell-based; settings: 30 min, UA 10 μM, RES 100 μM, alone or combined
Experimental: (§1) L6 myotubes were incubated with UA (10 μM) at different time points. Ursolic acid induced Akt phosphorylation by 1.8, 1.7, and 1.8 fold increase at 30, 45, and 60 min. […] Treatment of L6 myotubes with UA (10 μM) or RES (100 μM) for 30 min increased AMPK phosphorylation by 1.7 and 5.3 fold, respectively.

SENCAR mice [1] = test: TPA-mediated epidermal thickening (hyperplasia) in mouse skin; assay type: in vivo; settings: for 2 μg TPA-mediated epidermal thickening: topical 1, 2, or 3 μmol total dose, single agent
Experimental: (§2) Animals and treatment: Female SENCAR mice, 6-7 weeks old, were purchased from NCI Frederick (Frederick, Md.). The dorsal skin of SENCAR mice were shaved and treated topically twice per week for 2 weeks with 200 μL acetone vehicle or 1-3 μmol UA, 1-3 μmol RES, or an equimolar combination of RES and UA. Each treatment was followed 30 minutes later with topical application of 200 μL acetone vehicle or 1-2 μg of the tumor promoter TPA. In vivo sample collection: Animals were sacrificed 6 hr after the final TPA treatment for Western blotting and 48 hr after the final TPA treatment for histology. For immunohistochemical (IHC) analysis of epidermal proliferation five mice per group were i.p. injected with 100 mg/kg Bromodeoxyuridine (BrdU) in PBS 30 min prior to sacrifice. 1 cm^2 of mouse skin from treated areas was fixed in formalin and paraffin embedded to be analyzed via IHC. Immunohistochemistry (IHC): Slides were immunostained with anti-BrdU antibody. The percentage of BrdU-positive cells in the basal cell layer was determined from at least 10 randomly selected sites per slide (5 mice/group). In addition, the epidermal thickness of each skin sample was also measured at 10 random sites for 5 mice/group, using Image Pro-Discovery from Media Cybernetics (Bethesda, Md.).

NFKB subunit p65 = test: TNFα-mediated p65 phosphorylation in HaCaT keratinocytes, Western blot; assay type: cell-based, human; settings: preliminary experiments, RES 100 and 200 μM, UA 10 and 20 μM, single agents
Experimental: Western blotting: HaCaT cells were treated with sub-optimal doses of RES, UA, or RES+UA and stimulated with 10 ng/ml human tumor necrosis factor alpha (TNFα) for 30 min. Cells were scraped into lysis buffer containing 1% Triton X-100, 0.5% IGEPAL, 0.05 M TrisHCl and 0.1 M NaCl as well as protease/phosphatase inhibitors and 5 mM EDT A. For in vivo studies, whole skin was placed on glass over ice and epidermis was removed by scraping and placed in RIPA buffer with protease/phosphatase inhibitors. Lysates were homogenized and proteins were extracted by centrifugation. Twenty micrograms of protein was separated on Bis-Tris gels and transferred onto PVDF membranes. Membranes were blocked in 5% dry milk or BSA and incubated with primary antibodies overnight at 4° C. Membranes were incubated with corresponding HRP-conjugated secondary antibodies for one hour and developed.
As mentioned before, NFKB activity is important during the tumor promotion phase.

[2] = system: Ca3/7 mouse squamous carcinoma cells; test: MTT assay for cell viability, Ca3/7; assay type: cell-based; settings: Ca3/7 cells, 200 μM RES
Experimental: MTT assay for cell viability: Cells were plated at 1.5×10^4 cells/well on 96-well plates. Cells were pretreated with RES or 0.1% vehicle for 1 hr followed by various doses of UA or 0.1% DMSO vehicle for 24 hr. In the experiment with A549 cells, 5.0×10^3 cells/well were plated, and cells were treated with UA or 0.1% DMSO for 48 hr after 1 hr pretreatment with RES or vehicle. MTT reagent (0.5 mg/ml) was added, and cells were incubated for an additional 2.5 hr. Media was removed and formazan crystals were dissolved with 100 μl DMSO. Plates were measured at 570 nm with background subtraction at 650 nm, using a Biotek Synergy HT spectrophotometer. Statistical Analyses: Differences between individual groups were determined by ANOVA. IC50 values were calculated with GraphPad Prism. Resistance Reversal (RR) was calculated by dividing the IC50 value of the UA+vehicle group by the IC50 value of the UA+RES group.

SENCAR mice [3] = test: TPA-induced epidermal proliferation (BrdU IHC) in mouse skin; assay type: in vivo
Experimental: as §2

[4] = system: Akt substrate 160 (AS160); test: AS160 phosphorylation in L6 myotubes; assay type: cell-based; settings: UA 10 μM
Experimental: as §1

Akt = Akt phosphorylation in L6 myotubes; assay type: cell-based; settings: UA 10 μM
Experimental: as §1

[5] = 1-3 μmol doses, assayed 48 hr after the final TPA treatment

CN(C)C(=N)N=C(N)N [Met, Metformin, reference compound]
Mean [3H]-2DG per Min per Protein [ ] (L6 myotubes): 232.19 pmol/mg/min
Mean [3H]-DPM corrected for CYTO B (L6 myotubes): 19718.32 DPM/mg
fold change from DMSO (L6 myotubes): 1.94 fold

Oc1ccc(C=Cc2cc(O)cc(O)c2)cc1 [RES, resveratrol]
NFKB activity (luciferase reporter) (NFKB; RES alone 100 and 200 μM): partially inhibited
AMPK phosphorylation increase (AMPK): 5.3 fold
Mean [3H]-2DG per Min per Protein [ ] (L6 myotubes): 244.97 pmol/mg/min
Mean [3H]-DPM corrected for CYTO B (L6 myotubes): 37819.44 DPM/mg
fold change from DMSO (L6 myotubes): 2.05 fold
effect of 1 μg TPA on epidermal thickening (SENCAR mice [1]; 2 and 3 μmol doses of RES alone): no effect
2 μg TPA-mediated epidermal thickening (SENCAR mice [1]): no effect
TNFα-induced NFKB activity (phosphorylation of p65) (NFKB subunit p65): moderate effect
UA-mediated growth suppression with RES [2]: increases the sensitivity
2 μg TPA-induced epidermal proliferation (SENCAR mice [3]; [5]): limited effect

C[C@H]1[C@H](C)CC[C@]2(C(=O)O)CC[C@]3(C)C(=CC[C@@H]4[C@@]5(C)CC[C@H](O)C(C)(C)[C@@H]5CC[C@]43C)[C@H]12 [UA, Ursolic acid]
TNFα-stimulated NFKB activity (luciferase reporter) (NFKB; UA alone): dose-dependently decreases
AMPK phosphorylation increase (AMPK): 1.7 fold
Mean [3H]-2DG per Min per Protein [ ] (L6 myotubes): 257.35 pmol/mg/min
Mean [3H]-DPM corrected for CYTO B (L6 myotubes): 21855.37 DPM/mg
fold change from DMSO (L6 myotubes): 2.15 fold
effect of 1 μg TPA on epidermal thickening (SENCAR mice [1]; UA alone, 1-3 μmol): dose-dependently decreased
2 μg TPA-mediated epidermal thickening (SENCAR mice [1]): dose-dependently reversed
TNFα-induced NFKB activity (phosphorylation of p65) (NFKB subunit p65): moderate effect
AS160 phosphorylation increase ([4]; 15 min): 1.3 fold
AS160 phosphorylation increase ([4]; 30 min): 2.5 fold
AS160 phosphorylation increase ([4]; 45 min): 1.6 fold
AS160 phosphorylation increase ([4]; 60 min): 2.3 fold
Akt phosphorylation fold increase (Akt; 30 min): 1.8 fold
Akt phosphorylation fold increase (Akt; 45 min): 1.7 fold
Akt phosphorylation fold increase (Akt; 60 min): 1.8 fold
2 μg TPA-induced epidermal proliferation (SENCAR mice [3]; 3 μmol of UA alone): significantly decreased
2 μg TPA-induced epidermal proliferation (SENCAR mice [3]; [5]): limited effect
1 μg TPA-induced epidermal proliferation (SENCAR mice [3]; UA alone, 1-3 μmol): dose-dependently decreased
